Test results published in PubChem BioAssay AID330 (DTP/NCI, 2004).
Where “and” joins values, the source holds several entries; their conditions need not be identical. Equal entries are not always repeated. Toxic doses and inconclusive results are not listed. Rule for the calls: active = survival T/C of 150% or more; inactive = T/C below 125% in these data.

Test system: P388 leukemia ip, CD2F1 mice, survival T/C
Assay: NCI In Vivo Anticancer Drug Screen. Data for tumor model P388 Leukemia (intraperitoneal) in CD2F1 (CDF1) mice
Conditions: endpoint: median survival time, higher = longer survival
Method in brief: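 Mice carrying the transplanted tumor received test compound or vehicle. Survival was recorded in each group, and the value is the treated-group measurement divided by that of the vehicle-treated control group.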

[1] = dose: 12.5 mg/kg/injection, schedule: Q01DX009 (ip), vehicle: saline with Tween-80
[2] = dose: 25.0 mg/kg/injection, schedule: Q01DX009 (ip), vehicle: saline with Tween-80
[3] = dose: 50.0 mg/kg/injection, schedule: Q01DX009 (ip), vehicle: saline with Tween-80
[4] = dose: 100.0 mg/kg/injection, schedule: Q01DX001 (ip), vehicle: saline
[5] = dose: 200.0 mg/kg/injection, schedule: Q01DX001 (ip), vehicle: saline
[6] = dose: 50.0 mg/kg/injection, schedule: Q01DX005 (ip), vehicle: saline with Tween-80
[7] = dose: 100.0 mg/kg/injection, schedule: Q01DX005 (ip), vehicle: saline with Tween-80
[8] = dose: 50.0 mg/kg/injection, schedule: Q01DX009 (ip), vehicle: Klucel (hydroxypropylcellulose) (HPC)
[9] = dose: 100.0 mg/kg/injection, schedule: Q01DX009 (ip), vehicle: Klucel (hydroxypropylcellulose) (HPC)
[10] = dose: 60.0 mg/kg/injection, schedule: Q01DX005 (ip), vehicle: Klucel (hydroxypropylcellulose) (HPC)
[11] = dose: 120.0 mg/kg/injection, schedule: Q01DX005 (ip), vehicle: Klucel (hydroxypropylcellulose) (HPC)
[12] = dose: 50.0 mg/kg/injection, schedule: Q01DX009 (ip), vehicle: saline
[13] = dose: 100.0 mg/kg/injection, schedule: Q01DX009 (ip), vehicle: saline
[14] = dose: 200.0 mg/kg/injection, schedule: Q01DX009 (ip), vehicle: saline
[15] = dose: 50.0 mg/kg/injection, schedule: Q01DX005 (ip), vehicle: saline
[16] = dose: 100.0 mg/kg/injection, schedule: Q01DX005 (ip), vehicle: saline
[17] = dose: 200.0 mg/kg/injection, schedule: Q01DX005 (ip), vehicle: saline
[18] = dose: 50.0 mg/kg/injection, schedule: Q01DX005 (ip), vehicle: Klucel (hydroxypropylcellulose) (HPC)
[19] = dose: 100.0 mg/kg/injection, schedule: Q01DX005 (ip), vehicle: Klucel (hydroxypropylcellulose) (HPC)
[20] = dose: 200.0 mg/kg/injection, schedule: Q01DX005 (ip), vehicle: Klucel (hydroxypropylcellulose) (HPC)

Measured: T/C

COc1cc(CC2c3cc(OC)c(OC)cc3CCN2C)c(NC(=O)c2ccc(C(=O)Nc3cc(OC)c(OC)cc3CC3c4cc(OC)c(OC)cc4CCN3C)cc2)cc1OC (stereo not given)
inactive: dose: 12.5 mg/kg/injection, schedule: Q01DX009 (ip), vehicle: other 90 % of control | dose: 25.0 mg/kg/injection, schedule: Q01DX009 (ip), vehicle: other 92 % of control | dose: 50.0 mg/kg/injection, schedule: Q01DX009 (ip), vehicle: other 86 % of control | dose: 200.0 mg/kg/injection, schedule: Q01DX009 (ip), vehicle: other 92 % of control | dose: 400.0 mg/kg/injection, schedule: Q01DX009 (ip), vehicle: other 104 % of control

CC(C)=CCC1=CC(=O)C=CC1=O
inactive: dose: 6.25 mg/kg/injection, schedule: Q01DX009 (ip), vehicle: saline with Tween-80 98 % of control | [1] 99 % of control | [2] 107 % of control | [3] 114 % of control

COc1cc2cc(-c3ccc(OC(C)C)c(OC)c3)[n+](C)cc2cc1OC
inactive: dose: 100.0 mg/kg/injection, schedule: Q01DX001 (ip), vehicle: saline with Tween-80 100 % of control | dose: 200.0 mg/kg/injection, schedule: Q01DX001 (ip), vehicle: saline with Tween-80 94 % of control

CC(=O)OC1CSS(=O)CC1OC(C)=O (stereo not given)
inactive: dose: 100.0 mg/kg/injection, schedule: Q04DX002 (ip), vehicle: saline 100 % of control | dose: 200.0 mg/kg/injection, schedule: Q04DX002 (ip), vehicle: saline 109 % of control

CC(C)(Cc1nocc1C(C)(C)CC#N)c1cc(CC(C)(C)C2(C)OCCO2)no1
inactive: dose: 60.0 mg/kg/injection, schedule: Q01DX005 (ip), vehicle: saline with Tween-80 95 % of control | dose: 120.0 mg/kg/injection, schedule: Q01DX005 (ip), vehicle: saline with Tween-80 88 % of control

N=C1/C(=C\c2ccccc2O)C(=O)NN1C(=O)c1ccncc1
inactive: [4] 103 % of control | [5] 98 % of control | dose: 400.0 mg/kg/injection, schedule: Q01DX001 (ip), vehicle: saline 104 % of control

O=C(O)c1cc(Cc2c[nH]c(=O)[nH]c2=O)ccc1O
inactive: dose: 25.0 mg/kg/injection, schedule: Q01DX005 (ip), vehicle: saline with Tween-80 111 % of control | [6] 111 % of control | [7] 101 % of control

O=c1ccc(=O)n(CCc2ccccn2)[nH]1
inactive: [8] 112 % of control | [9] 109 % of control | dose: 200.0 mg/kg/injection, schedule: Q01DX009 (ip), vehicle: Klucel (hydroxypropylcellulose) (HPC) 108 % of control | dose: 400.0 mg/kg/injection, schedule: Q01DX009 (ip), vehicle: Klucel (hydroxypropylcellulose) (HPC) 106 % of control

CCN(Cc1c(C)[nH]c2cc(N(C)C)ccc2c1=O)Cc1c(C)[nH]c2cc(N(C)C)ccc2c1=O
inactive: [10] 90 % of control | [11] 92 % of control | dose: 240.0 mg/kg/injection, schedule: Q01DX005 (ip), vehicle: Klucel (hydroxypropylcellulose) (HPC) 91 % of control

c1ccc2c(SCCSc3c4ccccc4nc4ccccc34)c3ccccc3nc2c1
inactive: [10] 90 % of control | [11] 96 % of control

O[C@@H]1c2sccc2C2NC21 (stereo not given in full)
inactive: dose: 50.0 mg/kg/injection, schedule: Q01DX001 (ip), vehicle: saline 98 % of control | [4] 95 % of control | [5] 98 % of control

CC1=CC(O)CC(C)(C)C1 (stereo not given)
inactive: [12] 106 % of control | [13] 100 % of control | [14] 99 % of control

O=C1CC2(O)CSc3nc(=O)cc(n32)N1 (stereo not given)
inactive: [15] 107 % of control | [16] 106 % of control | [17] 94 % of control

S=c1[nH]c(N2CCOCC2)ncc1-c1ccccc1
inactive: dose: 100.0 mg/kg/injection, schedule: Q04DX002 (ip), vehicle: saline with Tween-80 99 % of control | dose: 200.0 mg/kg/injection, schedule: Q04DX002 (ip), vehicle: saline with Tween-80 99 % of control

c1ccc2c(c1)Oc1cccc3cccc-2c13
inactive: [18] 97 % of control | [19] 101 % of control | [20] 101 % of control

CNC(C(=O)OC(C)(C)C)C(C)C (stereo not given)
inactive: dose: 25.0 mg/kg/injection, schedule: Q01DX005 (ip), vehicle: saline 98 % of control | [15] 99 % of control | [16] 99 % of control

COc1cc2c(cc1OC)[C@H]1O[C@H](OC)c3c(ccc4c3OCO4)[C@H]1N(C)CC2
inactive: dose: 7.25 mg/kg/injection, schedule: Q01DX005 (ip), vehicle: Klucel (hydroxypropylcellulose) (HPC) 106 % of control | dose: 14.5 mg/kg/injection, schedule: Q01DX005 (ip), vehicle: Klucel (hydroxypropylcellulose) (HPC) 100 % of control | dose: 29.0 mg/kg/injection, schedule: Q01DX005 (ip), vehicle: Klucel (hydroxypropylcellulose) (HPC) 106 % of control | dose: 58.0 mg/kg/injection, schedule: Q01DX005 (ip), vehicle: Klucel (hydroxypropylcellulose) (HPC) 96 % of control

C[N+](C)(N)CCS(N)(=O)=O
inactive: [12] 103 % of control | [13] 103 % of control | [14] 100 % of control

CS(=O)(=O)c1nc(N)c(S(N)(=O)=O)c(N)n1
inactive: [8] 108 % of control | [9] 111 % of control

O=C1OCCOCCOCCOCCOCCOCCOC(=O)c2cccc1n2
inactive: dose: 100.0 mg/kg/injection, schedule: Q04DX003 (ip), vehicle: Klucel (hydroxypropylcellulose) (HPC) 100 % of control | dose: 200.0 mg/kg/injection, schedule: Q04DX003 (ip), vehicle: Klucel (hydroxypropylcellulose) (HPC) 100 % of control | dose: 400.0 mg/kg/injection, schedule: Q04DX003 (ip), vehicle: Klucel (hydroxypropylcellulose) (HPC) 100 % of control

CC1(C)N=C(N)N=C(N)N1c1ccc(CCCCc2ccc(Cl)cc2Cl)cc1
inactive: dose: 3.13 mg/kg/injection, schedule: Q01DX009 (ip), vehicle: saline with Tween-80 118 % of control | [1] 122 % of control

CC(C)C(NC(=O)[C@H](C(C)C)N1C(=O)c2ccccc2C1=O)C(=O)O (stereo not given in full)
inactive: [6] 88 % of control | [7] 96 % of control

O=C(O)c1c2ccccc2nc2[nH]c(=O)[nH]c(=O)c12
inactive: [18] 114 % of control and 95 % of control | dose: 50.0 mg/kg/injection, schedule: Q01DX005 (ip), vehicle: Klucel + Tween-80 117 % of control | [19] 107 % of control and 95 % of control | dose: 100.0 mg/kg/injection, schedule: Q01DX005 (ip), vehicle: Klucel + Tween-80 107 % of control | [20] 114 % of control | dose: 200.0 mg/kg/injection, schedule: Q01DX005 (ip), vehicle: Klucel + Tween-80 117 % of control

CN(C)Cc1ccc(C(C)(C)C)cc1Br
inactive: dose: 12.5 mg/kg/injection, schedule: Q01DX009 (ip), vehicle: water 97 % of control | dose: 25.0 mg/kg/injection, schedule: Q01DX009 (ip), vehicle: water 95 % of control | dose: 50.0 mg/kg/injection, schedule: Q01DX009 (ip), vehicle: water 99 % of control | dose: 100.0 mg/kg/injection, schedule: Q01DX009 (ip), vehicle: water 95 % of control | dose: 200.0 mg/kg/injection, schedule: Q01DX009 (ip), vehicle: water 89 % of control

Cc1nnc2c([N+](=O)[O-])c(N)c(Cl)nn12
inactive: dose: 7.5 mg/kg/injection, schedule: Q01DX005 (ip), vehicle: saline with Tween-80 118 % of control | dose: 15.0 mg/kg/injection, schedule: Q01DX005 (ip), vehicle: saline with Tween-80 113 % of control

CCC(=O)Nc1ccc(C(=O)C(C)O[N+](=O)[O-])cc1 (stereo not given)
inactive: [2] 98 % of control | [3] 99 % of control | dose: 100.0 mg/kg/injection, schedule: Q01DX009 (ip), vehicle: saline with Tween-80 100 % of control

CCCN=C(C)NO
inactive: [15] 98 % of control | [16] 101 % of control | [17] 102 % of control

CN1C(=O)c2ccc3c4ccc5c(=O)n6c7ccccc7nc6c6ccc(c7ccc(c2c37)C1=O)c4c56
inactive: [18] 102 % of control | [19] 105 % of control | [20] 97 % of control
